This is an account of results in patent US12331027B2, “Herbicidal pyridylethers” (BASF SE, priority 2017, dated 2025).

Holding throughout (assay): greenhouse post-emergence herbicidal test
Assay type in all cases: in vivo

The subject of assay [1] is AMARE (Amaranthus retroflexus). Particulars: post-emergence method, application rate 16 g/ha, scale from 0 to 100; for pest or weed control at 16 g/ha: Amaranthus retroflexus, read-out: herbicidal activity against AMARE. An excerpt:
(§1) The seeds of the test plants were sown separately for each species. For the post-emergence treatment, the test plants were first grown to a height of 3 to 15 cm, depending on the plant habit, and only then treated with the active ingredients which had been suspended or emulsified in water. For this purpose, the test plants were either sown directly and grown in the same containers, or they were first grown separately as seedlings and transplanted into the test containers a few days prior to treatment. Depending on the species, the plants were kept at 10-25° C. or 20-35° C., respectively. The test period extended over 2 to 4 weeks. During this time, the plants were tended, and their response to the individual treatments was evaluated. Evaluation was carried out using a scale from 0 to 100. 100 means no emergence of the plants, or complete destruction of at least the aerial moieties, and 0 means no damage, or normal course of growth. A good herbicidal activity is given at values of at least 70 and a very good herbicidal activity is given at values of at least 85. [table]

For assay [2], the system named is SETVI (Setaria viridis). Particulars: scale from 0 to 100; for herbicidal activity against SETVI: post-emergence method, application rate 16 g/ha; for damages SETVI: post emergence control 7 days after treatment (greenhouse).
Excerpt: as §1

Assay [3] relates to ECHCG (Echinocloa crus-galli). Conditions: post-emergence method, application rate 16 g/ha, scale from 0 to 100.
Excerpt: as §1

Assay [4] deals with CHEAL (Chenopodium album). Conditions: post-emergence method, application rate 16 g/ha, scale from 0 to 100.
Excerpt: as §1

The subject of assay [5] is POLCO (Polygonum convolvulus). Particulars: post-emergence method, application rate 16 g/ha, scale from 0 to 100.
Excerpt: as §1

For assay [6], the system named is ALOMY (Alopecurus myosuroides). Conditions: post emergence control 7 days after treatment (greenhouse), scale from 0 to 100.
Excerpt: as §1

Assay [7] has as its system AVEFA (Avena fatua). Particulars: post emergence control 7 days after treatment (greenhouse), scale from 0 to 100.
Excerpt: as §1

As for `CCOC(=O)COc1ccccc1Oc1nc(-n2nc(C)n(C(F)F)c2=O)c(F)cc1Cl` [Example 1, Ethyl 2-[2-[[3-chloro-6-[4-(difluoromethyl)-3-methyl-5-oxo-1,2,4-triazol-1-yl]-5-fluoro-2-pyridyl]oxy]phenoxy]acetate], the pest or weed control at 16 g/ha in assay [1] is at least 85%.
For `CCOC(=O)COc1ccccc1Oc1nc(-n2nc(C(F)(F)F)n(C)c2=O)c(F)cc1C#N` [Example 2, Ethyl 2-[2-[[3-cyano-5-fluoro-6-[4-methyl-5-oxo-3-(trifluoromethyl)-1,2,4-triazol-1-yl]-2-pyridyl]oxy]phenoxy]acetate], the “herbicidal activity against SETVI” value in assay [2] is “very good (a very good herbicidal activity is given at values of at least 85)”. Further, the pest or weed control at 16 g/ha in assay [1] is at least 85%. In assay [3], the “herbicidal activity against ECHCG” value is “very good (a very good herbicidal activity is given at values of at least 85)”.
`CCOC(=O)COc1ccccc1Oc1nc(-n2nc(C(F)(F)F)n(C)c2=O)c(F)cc1C(N)=S` [Example 3, Ethyl 2-[2-[[3-carbamothioyl-5-fluoro-6-[4-methyl-5-oxo-3-(trifluoromethyl)-1,2,4-triazol-1-yl]-2-pyridyl]oxy]phenoxy]acetate]: the pest or weed control at 16 g/ha in assay [1] is at least 70%.
The same measure, in the same setting: then `CCOC(=O)COc1ccccc1Oc1nc(-n2nc3n(c2=O)CCCC3)c(Cl)cc1Cl` [Example 4, Ethyl 2-[2-[[3,5-dichloro-6-(3-oxo-5,6,7,8-tetrahydro-[1,2,4]triazolo[4,3-a]pyridin-2-yl)-2-pyridyl]oxy]phenoxy]acetate], with at least 70%.
In the case of `CCOC(=O)COc1ccccc1Oc1nc(-n2nc(C(C)(C)C)oc2=O)c(Cl)cc1Cl` [Example 5, Ethyl 2-[2-[[6-(5-tert-butyl-2-oxo-1,3,4-oxadiazol-3-yl)-3,5-dichloro-2-pyridyl]oxy]phenoxy]acetate], the pest or weed control at 16 g/ha in assay [1] was at least 85%. Besides, in assay [4], the “herbicidal activity against CHEAL” value is given as “very good (a very good herbicidal activity is given at values of at least 85)”.
As for `CCOC(=O)COc1ccccc1Oc1nc(-c2nn(C)c(OC(F)F)c2Cl)c(F)cc1Cl` [Example 6, Ethyl 2-[2-[[3-chloro-6-[4-chloro-5-(difluoromethoxy)-1-methyl-pyrazol-3-yl]-5-fluoro-2-pyridyl]oxy]phenoxy]acetate], the pest or weed control at 16 g/ha in assay [1] is at least 85%.
Same read-out and setting: as for `CCOC(=O)COc1ncccc1Oc1nc(-n2c(=O)n(C)c(=O)n(C)c2=O)c(F)cc1Cl` [Example 7, Ethyl 2-[[3-[[3-chloro-6-(3,5-dimethyl-2,4,6-trioxo-1,3,5-triazinan-1-yl)-5-fluoro-2-pyridyl]oxy]-2-pyridyl]oxy]acetate], the figure is at least 70%.
On to `CCOC(=O)COc1ncccc1Oc1nc(-n2ncc(C(F)(F)F)c(C)c2=O)c(F)cc1Cl` [Example 8, Ethyl 2-[[3-[[3-chloro-5-fluoro-6-[5-methyl-6-oxo-4-(trifluoromethyl)pyridazin-1-yl]-2-pyridyl]oxy]-2-pyridyl]oxy]acetate], for which, in assay [1], the pest or weed control at 16 g/ha is at least 85%.
For the compound `CCOC(=O)COc1ccccc1Oc1nc(-n2nc(C)n(C(F)F)c2=O)c(F)cc1F` [Example 9], the “herbicidal activity against SETVI” value in assay [2] was “good (A good herbicidal activity is given at values of at least 70)”. In assay [3], the “herbicidal activity against ECHCG” value is on record as “good (A good herbicidal activity is given at values of at least 70)”. In addition, in assay [4], the “herbicidal activity against CHEAL” value was “good (A good herbicidal activity is given at values of at least 70)”.
For the compound `CCOC(=O)COc1ncccc1Oc1nc(-n2nc(C)n(C(F)F)c2=O)c(F)cc1F` [Example 14], the “herbicidal activity against SETVI” value in assay [2] is on record as “very good (a very good herbicidal activity is given at values of at least 85)”.
For `CCOC(=O)COc1ncccc1Oc1nc(-n2nc(C)n(C(F)F)c2=O)ccc1Cl` [Example 16], the “herbicidal activity against AMARE” value in assay [1] is “very good (a very good herbicidal activity is given at values of at least 85)”. Besides, the “herbicidal activity against POLCO” value in assay [5] was “very good (a very good herbicidal activity is given at values of at least 85)”. For the same compound, in assay [4], the “herbicidal activity against CHEAL” value is reported as “very good (a very good herbicidal activity is given at values of at least 85)”.
Take `CCOC(=O)COc1ccccc1Oc1nc(-n2nc(C(F)(F)F)n(C)c2=S)c(F)cc1C#N` [Example 18]: the “herbicidal activity against SETVI” value in assay [2] was “good (A good herbicidal activity is given at values of at least 70)”. Moreover, the “herbicidal activity against AMARE” value in assay [1] was “very good (a very good herbicidal activity is given at values of at least 85)”.
For the compound `CCOC(=O)COc1ccccc1Oc1nc(N2C(=O)OC(=C(C)C)C2=O)c(F)cc1Cl` [Example 26, Ethyl 2-[2-[[3-chloro-5-fluoro-6-(5-isopropylidene-2,4-dioxo-oxazolidin-3-yl)-2-pyridyl]oxy]phenoxy]acetate], in assay [2], the “herbicidal activity against SETVI” value is recorded as “very good (a very good herbicidal activity is given at values of at least 85)”. In assay [1], the pest or weed control at 16 g/ha is at least 85%. Also, in assay [5], the “herbicidal activity against POLCO” value is on record as “very good (a very good herbicidal activity is given at values of at least 85)”. Also, in assay [4], the “herbicidal activity against CHEAL” value is recorded as “very good (a very good herbicidal activity is given at values of at least 85)”.
Take `CCOC(=O)COc1ccccc1Oc1nc(N2C(=O)C3=C(CCCC3)C2=O)c(F)cc1Cl` [Example 27, ethyl 2-[2-[[3-chloro-6-(1,3-dioxo-4,5,6,7-tetrahydroisoindol-2-yl)-5-fluoro-2-pyridyl]oxy]phenoxy]acetate]: in assay [2], the “herbicidal activity against SETVI” value is “very good (a very good herbicidal activity is given at values of at least 85)”. Also, the pest or weed control at 16 g/ha in assay [1] was at least 85%. Besides, in assay [3], the “herbicidal activity against ECHCG” value is reported as “very good (a very good herbicidal activity is given at values of at least 85)”. Further, the “herbicidal activity against POLCO” value in assay [5] was “very good (a very good herbicidal activity is given at values of at least 85)”. In assay [4], the “herbicidal activity against CHEAL” value is given as “very good (a very good herbicidal activity is given at values of at least 85)”.
`COC(=O)COc1ccc(Oc2cc(-n3ncc(C(F)(F)F)c(C)c3=O)c(F)cc2Cl)cc1` [Example A2-11, reference compound]: the “damages SETVI” value was determined as 80 in assay [2] (application rate 2 g/ha) and 85 in assay [2] (application rate 4 g/ha). In addition, the “damages ALOMY” value in assay [6] (application rate 2 g/ha) is reported as 60; in assay [6] (application rate 4 g/ha) it was 65. Further, the “damages AVEFA” value in assay [7] (application rate 8 g/ha) turned out to be 70; in assay [7] (application rate 16 g/ha), 80.
Consider `COC(=O)COc1ccc(Oc2nc(-n3ncc(C(F)(F)F)c(C)c3=O)c(F)cc2Cl)cc1` [example 28], for which the “damages SETVI” value is listed as 90 in assay [2] (application rate 2 g/ha) and 95 in assay [2] (application rate 4 g/ha). Moreover, the “damages ALOMY” value in assay [6] (application rate 2 g/ha) stood at 70; in assay [6] (application rate 4 g/ha), 75. Further, the “damages AVEFA” value in assay [7] (application rate 8 g/ha) is reported as 80; in assay [7] (application rate 16 g/ha) it was 98.
